Measurements reported in patent US20110135611A1 (priority 2009, published 2011).
Like-named read-outs stand apart in the source and are kept apart here.

What was measured:
[1] = tested on: GABAA receptors; assay type: cell-based, mice; conditions: for GABAergic miniature SSCs (mSSCs): BMI 100 μM, in presence of DNQX, D-AP5 and TTX, apoE3-KI and apoE4-KI mice
Excerpt: ApoE3-KI and apoE4-KI mice (2-3 months) were sacrificed 2 weeks after retrovirus-GFP injection and processed for slice preparation as described (Duan et al., 2007; Ge et al., 2006a). Whole-cell voltage-clamp recordings from visually identified GFP^+ neurons (2 weeks after injection) were obtained with an infrared differential interference contrast video microscopy system.
Next the level of GABAergic synaptic innervation, which is critical for neuronal development of newborn hippocampal cells (Ge et al., 2006a; Ge et al., 2006b; Liu et al., 2006; Tozuka et al., 2005), was assessed. GABAergic miniature SSCs (mSSCs) were recorded from GFP^+ neurons (resting membrane potential Vm=−65 mV) 2 weeks after injection of the retrovirus-GFP construct. These studies were conducted in the presence of 6,7-dinitroquinoxaline-2,3-dione (DNQX) (20 μM) and D-(−)-2-amino-5-phosphonovaleric acid (D-AP5) (50 μM) to block glutamate-mediated currents and tetrodotoxin (TTX) (1 μM) to block action potential-mediated GABA release.
In the presence of DNQX and D-AP5, GABA-evoked postsynaptic currents (ePSCs) recorded from GFP^+ neurons were generated by electrical stimulation of GABAergic axons in the molecular layer of the dentate gyrus. This indicates a functional coupling between hilar GABAergic interneurons and newborn neurons in both apoE3-KI and apoE4-KI mice. However, the ePSC peak amplitude was ˜40% lower in apoE4-KI mice (FIGS. 6C, 6D, and 6F). This finding is consistent with a reduction of presynaptic GABAergic inputs onto newborn neurons available for electrical activation in apoE4-KI mice. […] This finding reconfirms the intact GABAA receptor function in newborn neurons of apoE4-KI mice.

[2] = tested on: neuronal maturation; test: Effect of GABAA receptor potentiator or antagonist treatment on neuronal maturation (SGZ, 4 weeks after BrdU); assay type: in vivo, mice
Method: (§1) Female mice (3, 6-7, or 12-13 months of age) received two intraperitoneal injections of BrdU (Sigma, 100 mg/kg body weight) 6 h apart. One day, 3 days, and 4 and 10 weeks after the second injection, the brains were perfused with phosphate-buffered saline and collected.
To investigate the effect of GABAA receptor potentiator or antagonist treatment on NSC proliferation, female mice (6-7 months of age) were treated with once-daily intraperitoneal injections of pentobarbital (PB) (Sigma, 50 mg/kg; apoE4-KI mice) or picrotoxin (PTX) (Sigma, 4 mg/kg; apoE3-KI mice). Twenty-four hours after the last treatment, mice received two injections of BrdU (100 mg/kg) 6 h apart and were sacrificed 1 day later. To investigate the effect of GABAA receptor potentiator or antagonist treatment on neuronal maturation, female mice (6-7 months of age) received two injections of BrdU 6 h apart. Twenty-four hours later, apoE3-KI mice received daily injections of PTX for 7 consecutive days, and apoE4-KI mice received daily injections of PB for 28 consecutive days. Mice were sacrificed 4 weeks after the second BrdU injection.
Mouse brains were fixed in 4% paraformaldehyde for 3 days, and coronal sections (40 μm) were cut continuously throughout the entire hippocampus with a vibratome. Every eighth section was immunostained with various primary and secondary antibodies and examined with a laser-scanning confocal system.
Immunostaining was carried out with anti-BrdU (mouse monoclonal, Chemicon, 1:400; or rat monoclonal, Abcam, 1:400) and/or with antibodies against other cellular markers, including mouse anti-NeuN (Chemicon, 1:400), mouse anti-nestin (Chemicon, 1:50), goat anti-Dcx (Santa Cruz Biotechnology, 1:40), goat anti-Sox2 (Santa Cruz Biotechnology, 1:350), rabbit anti-GFAP (Invitrogen, 1:400), mouse anti-β-III-tubulin (Promega, 1:800), mouse anti-S100β (Abcam, 1:400), and rat anti-Noggin (R&D Systems, 1:200). Corresponding secondary antibodies (Texas Red and fluorescein, 1:250, Vector Laboratories) were used. For Ki67, somatostatin, and GAD67 immunostaining, rabbit anti-Ki67 (Bethyl Labs, 1:1000), rat anti-somatostatin (Chemicon, 1:100), and mouse anti-GAD67 (Chemicon, 1:1500) were used with biotinylated goat anti-rabbit IgG (1:250), rabbit anti-rat IgG (1:250), and rabbit anti-mouse IgG (1:250) as secondary antibodies and diaminobenzadine as a chromagen (Dako).
(§2) Mouse brains were fixed in 4% paraformaldehyde for 3 days, and coronal sections (40 μm) were cut continuously throughout the entire hippocampus with a vibratome. Single- or double-immunostained cells on both sides of the hippocampus of all stained sections were counted and calculated. Numbers of newborn cells (BrdU^+) and immature neurons (BrdU^+ and Dcx^+) in the SGZ were determined 1 or 3 days after BrdU injection; numbers of surviving newborn cells (BrdU^+) and mature neurons (BrdU^+ and NeuN^+) in the SGZ were determined 4 or 10 weeks after injection. Newborn neurons that had migrated from the SVZ to the OB were quantified 4 weeks after BrdU injection as reported (Galvão et al., 2008). The number of GABAergic interneurons in the hilus of the dentate gyrus was determined by counting GAD67- and somatostatin-positive cells.

[3] = tested on: dendritic development of newborn neurons; test: Dendritic development of retrovirus-GFP labelled newborn hippocampal neurons; assay type: in vivo, mice
[4] = tested on: NSC proliferation; test: Effect of GABAA receptor potentiator or antagonist treatment on NSC proliferation (BrdU+ cells in SGZ); assay type: in vivo, mice; conditions: 1 day after BrdU injection
Method: as §1
To investigate the effect of GABAA receptor potentiator or antagonist treatment on NSC proliferation, female mice (6-7 months of age) were treated with once-daily intraperitoneal injections of pentobarbital (PB) (Sigma, 50 mg/kg; apoE4-KI mice) or picrotoxin (PTX) (Sigma, 4 mg/kg; apoE3-KI mice). Twenty-four hours after the last treatment, mice received two injections of BrdU (100 mg/kg) 6 h apart and were sacrificed 1 day later. […]
as §2, with “The number of GABAergic interneurons in the hilus of the dentate gyrus was determined by counting GAD67- and somatostatin-positive cells.” left out

[5] = tested on: NSCs from apoE-KO mice; test: NSC culture and neural differentiation in vitro; assay type: cell-based; conditions: neuronal differentiation conditions, Noggin 500 ng/ml
Method: NSCs were isolated from brains of apoE3-KI, apoE4-KI, wildtype, and apoE-KO mice at postnatal day 1 (P1) using a modified neurosphere method (Brewer and Torricelli, 2007; Ray and Gage, 2006). The expression of apoE and Noggin in NSCs with different apoE genotypes was assessed by anti-apoE and anti-Noggin (R&D Systems) western blots of cell lysates. Neural differentiation of the established NSCs with different apoE genotypes was induced in vitro as reported (Song et al., 2002). In some experiments, recombinant mouse Noggin (R&D Systems) was added at 500 ng/ml into the medium during neural differentiation. Neuronal and astrocytic differentiation of NSCs at 7 days was determined and quantified.

[6] = apoE4-KI mice, daily PB for 4 weeks
[7] = apoE3-KI mice, daily PTX for 7 days, 4 weeks after BrdU injection

For `C[N+]1(C)CCc2cc3c(cc2[C@H]1[C@@H]1OC(=O)c2c1ccc1c2OCO1)OCO3.[I-]` [Bicuculline methoiodide], the “ePSCs (evoked postsynaptic currents)” value ([1]; BMI 100 μM bath application, in presence of DNQX and D-AP5) was “Currents were blocked”, the “GABAergic miniature SSCs (mSSCs)” value [1] was “abolished the mSSCs” and the “GABAergic miniature SSCs (mSSCs)” value ([1]; listed as BMI) was “The mSSCs were blocked”.

With `NCCCC(=O)O` [GABA, gamma-aminobutyric acid] the “current amplitudes evoked by focal application” value ([1]; exogenous GABA 500 μM, GFP+ neurons from apoE3-KI vs apoE4-KI mice) was “evoked similar current amplitudes in GFP^+ neurons from apoE3-KI and apoE4-KI mice”.

`CCCC(C)C1(CC)C(=O)NC(=O)NC1=O` (stereo not drawn) [pentobarbital] was tested, and the “number of immature neurons” value [2, 6] was “decreased the number of immature neurons”, the “number of mature neurons” value [2, 6] was “increased the number of mature neurons” and the “length of dendritic branches of newborn neurons” value ([3]; apoE3-KI mice treated with PB) was “did not alter the length or number of dendritic branches”. For the same molecule, the “number of dendritic branches of newborn neurons” value ([3]; apoE3-KI mice treated with PB) was “did not alter the length or number of dendritic branches”, the “dendritic branch number of newborn neurons” value ([3]; apoE4-KI mice treated with PB) was “increases in both dendritic length and branch number to levels similar to those in wildtype and apoE3-KI mice” and the “dendritic length of newborn neurons” value ([3]; apoE4-KI mice treated with PB) was “increases in both dendritic length and branch number to levels similar to those in wildtype and apoE3-KI mice”. For the same molecule, the “number of dendritic branches of newborn neurons” value ([3]; wildtype mice treated with PB) was “trend toward significant increase (p=0.053)” and the “number of newborn cells (BrdU+) in the SGZ” value ([4]; apoE4-KI mice, PB 50 mg/kg i.p. once daily) was “decreased the number of newborn cells to levels similar to those of wildtype and untreated apoE3-KI mice”.

With picrotoxin the “number of immature neurons” value [2, 7] was “the number of immature neurons was increased”, the “number of mature neurons” value [2, 7] was “the number of mature neurons was decreased” and the “survival of newborn cells” value [2, 7] was “the survival of newborn cells was unaltered”. The “number of newborn cells (BrdU+) in the SGZ” value ([4]; apoE3-KI mice, PTX 4 mg/kg i.p. once daily for 3 days) was “increased the number of newborn cells 1 day after BrdU injection to a level similar to that in untreated apoE4-KI mice”.

B1: recombinant mouse Noggin: recombinant mouse Noggin (R&D Systems), bone-morphogenetic protein (BMP) inhibitor (protein, UniProt P97466 28-232, looked up)
Noggin: QHYLHIRPAPSDNLPLVDLIEHPDPIFDPKEKDLNETLLRSLLGGHYDPGFMATSPPEDRPGGGGGPAGGAEDLAELDQLLRQRPSGAMPSEIKGLEFSEGLAQGKKQRLSKKLRRKLQMWLWSQTFCPVLYAWNDLGSRFWPRYVKVGSCFSKRSCSVPEGMVCKPSKSVHLTVLRWRCQRRGGQRCGWIPIQYPIISECKCSC
With B1 the astrogenesis [5] was “inhibited astrogenesis” and the neurogenesis [5] was “stimulated neurogenesis to levels similar to those of NSCs from wildtype mice”.
